Experiments:
Aedes albopictus = assay: Behavioural (blood-feeding) repellency test on feeders covered with pig intestinal skin; format: in vivo
Method: Testing was performed as to the activity of the compositions obtained by the method according to the invention on the behaviour of the tiger mosquito, Aedes albopictus.
The behavioural tests were carried out at the Montpellier Vectopôle, which is a research centre that collaborates with the WHO for the evaluation of insecticides in public health.
The tests were carried out on mosquitoes aged 5 to 9 days old after their evolution from pupae to adult.
In preparation for the experiment, the mosquitoes were […] on the day prior thereto, in order to promote their appetite for the test to occur the subsequent day.
Each cup contains a damp cotton. The female mosquitoes were removed from the cage making use of a tube that enables aspiration thereof. They were then introduced into each experiment cup (10 mosquitoes per cup).
The tests were carried out on plexiglass racks serving as supports for glass bells known as feeders. The latter are connected to each other by plastic pipes wherein water circulates at 37° C.
Pig intestinal skin was used to mimic human skin in the experiment. The pieces of intestinal skin are positioned and stretched over the feeders.
The repellent is diluted in ethyl alcohol (aka ethanol or EtOH) and is deposited on the skin using a micropipette and then spread over the entire surface. […] If the composition tested is a mixture of at least two compounds, one of which is PMD, the said composition is diluted in ethanol at a concentration of 0.02036 mg/μL, or else is diluted in ethanol until 0.02036 mg/μL of PMD is obtained.
The feeders are turned over, then 300 μL of sheep blood are placed in each feeder. The cups are inserted under each feeder.
Polystyrene plates are inserted between the lines of repellent so as to avoid possible interactions of odours. The duration of the experiment is one hour. The cups are then placed in a freezer at −20° C. for a period of 40 minutes. After freezing, the contents of one cup are placed between two sheets of paper, with the entirety thereof then being crushed with a plexiglass plate. The counting of the blood-fed (engorged) mosquitoes is done based on the number of red dots on the sheet of paper. The results are expressed as a percentage of repellency (100%-X % of blood-feeding). The percentage of blood-feeding is defined in relation to the EtOH negative control. DEET and commercial cis/trans PMD 75/25 at 200 mg/m^2 were used as positive controls.
The results obtained were statistically analysed using R software (R Development Core Team. R: A language and environment for statistical computing. R Foundation for Statistical Computing, Vienna, Austria. ISBN 3-900051-07-0, 2013) and represent the mean of 16 replicates. The percentage repellency values are presented as the mean±standard deviation. The R software also makes it possible to compare two percentage repellency values by means of calculating the quantity p. This quantity p is a probability.

acetylcholinesterase = conditions: enzyme of insects as also of mammals; cited from earlier work

Row | SMILES | % Repellency (Aedes albopictus; Table 2 series, 110 mg/m^2 in EtOH, 1 h, mean ± SD of 16 replicates) [%] | % Repellency (Aedes albopictus; Table 3 series, 110 mg/m^2 in EtOH, 1 h, mean ± SD) [%] | % Repellency (Aedes albopictus; Table 4 series, 110 mg/m^2 in EtOH, mean ± SD) [%] | % Repellency (Aedes albopictus; Table 5 series, 110 mg/m^2 in EtOH, mean ± SD) [%] | % Repellency (Aedes albopictus; Table 6 series, 110 mg/m^2 in EtOH, mean ± SD) [%] | % Repellency (Aedes albopictus; Table 7 series, 110 mg/m^2 in EtOH, mean ± SD) [%] | acetylcholinesterase inhibition (acetylcholinesterase) | % Repellency (Aedes albopictus; Table 2 series, 200 mg/m^2 in EtOH, 1 h, mean ± SD) [%] | % Repellency (Aedes albopictus; Table 3 series, 200 mg/m^2 in EtOH, 1 h, mean ± SD) [%] | % Repellency (Aedes albopictus; Table 4 series, PMD at 200 mg/m^2 in EtOH, mean ± SD) [%] | % Repellency (Aedes albopictus; Table 5 series, PMD at 200 mg/m^2 in EtOH, mean ± SD) [%] | % Repellency (Aedes albopictus; Table 6 series, PMD at 200 mg/m^2 in EtOH, mean ± SD) [%] | % Repellency (Aedes albopictus; Table 7 series, PMD at 200 mg/m^2 in EtOH, mean ± SD) [%] | ED 50 expressed as concentration (Aedes albopictus; concentration in EtOH tantamount to 200 mg/m^2) [mg/mL] | ED 50 (median effective dose) (Aedes albopictus; repellency, dose on skin surface) [mg/m^2]
1 | CCN(CC)C(=O)c1cccc(C)c1 [DEET, N,N diethyl-meta-toluamide] | 76 ± 9 | 56 ± 8 | 39 ± 7 | 49 ± 17 | 73 ± 2 | 43 ± 13 | inhibits | – | – | – | – | – | – | – | –
2 | CC1CCC(C(C)(C)O)C(O)C1 (mixture of isomers) [Commercial cis/trans PMD 75/25, p-menthane-3,8-diol] | – | – | – | – | – | – | – | 51 ± 11 | 55 ± 1 | 31 ± 7 | 36 ± 1 | 48 ± 15 | 52 ± 12 | 20.36 | 200

Source: patent publication US12648560B2, “Mosquito repellent composition and method for the preparation thereof” (priority 2019, dated 2026)
